We go through one compound from US9586947B2, “Imidazoline derivatives, preparation methods thereof, and their applications in medicine” (priority 2012, dated 2017).

The test system of data set [1] is PSA secretion of LNCaP cells. Description: Inhibitory activity on PSA secretion of LNCaP cells. Format: cell-based. The note with it: Homo sapiens, 96 h; LNCaP cells, 1 nM testosterone medium, 4 days of incubation, PSA kit OD450; read-out: IC50 (inhibition of PSA secretion of LNCaP cells).
Data set [2] deals with LNCaP cells. Briefly: Proliferation inhibition of LNCaP cells (CCK-8). Type of data set: cell-based. The note with it: Homo sapiens, 144 h, cultured 3 + 3 days, CCK-8, OD at 450 nm.
For data set [3], the system named is PSA secretion of LNCaP-AR cells (AR-overexpressed LNCaP cells). Briefly: Agonist activity on PSA secretion of LNCaP-AR cells. Type of data set: cell-based. The note with it: 96 h, 4 days, OD value (test compounds)/OD value (blank control), blank control 100. As for the experimental part: The following in vitro assay was performed to determine the activity of a high concentration of the compounds of the present invention for agitating the PSA secretion of LNCaP-AR cells (AR-overexpressed LNCaP cells, referred to as “LNCaP-AR cells” for short, constructed by a retroviral transfection method).
LNCaP-AR cells were subcultured in cell culture medium, resuspended in active carbon culture medium, and then inoculated into a 96-well plate (100 μl/well) with an inoculation density of 5×10^4 cells/well.
The test compounds were dissolved in DMSO (dimethyl sulfoxide) and prepared as a 10 mM stock solution. When used, the stock solution was diluted with DMSO into the two concentrations of 2 mM and 0.6 mM. Then, the diluted concentrations were each diluted with 20× active carbon culture medium, in order to ensure DMSO concentration in each culture system was 0.5%. Diluted test compounds remained to be tested.
10 μl of diluted test compounds were added to a 96-well plate and mixed gently. 10 μl of 0.5% DMSO diluted with active carbon culture medium was added to the blank control group.
After 4 days of incubation, 60 μl of cell cultural supernatants were collected, and the OD value of PSA per well was measured on a NOVO Star microplate reader using PSA kit (abnova, KA0208).
Agonist activity of the test compounds of the present invention on PSA secretion of LNCaP-AR cells was evaluated by the percentage of OD value (test compounds)/OD value (blank control). When the percentage value is greater than 100, the test compounds have agonist activity on PSA secretion of LNCaP-AR cells compared to the blank control. Conversely, when the percentage value is less than 100, the test compounds have no agonist activity on PSA secretion of LNCaP-AR cells compared to the blank control.

Data set [4] can be described thus: Pharmacokinetics assay in rats, intragastric administration. The following applies: Sprague-Dawley, rat, plasma, po, male SD rats, 5 mg/kg. Type of data set: in vivo. As for the experimental part: Male rats were used as test animals. The compounds of Example 6, Example 9, Example 11, Example 13, Example 15, Example 16, Example 17, Example 44, and Example 45 were administered intragastrically to rats to determine the drug concentration in plasma at different time points by LC/MS/MS method. The pharmacokinetic behavior of the compounds of the present invention was studied and evaluated in rats.
27 healthy adult male Sprague-Dawley (SD) rats, purchased from SINO-BRITISH SIPPR/BK LAB. ANIMAL LTD., CO, Certificate No.: SCXK (Shanghai) 2008-0016, were divided into 9 groups, with 3 rats in each group.
The appropriate amount of test compounds was weighed and mixed with 0.5% CMC-Na to prepare a 0.5 mg/mL suspension by an ultrasonic method.
After an overnight fast, 27 SD rats were divided into 9 groups, and administered the compounds intragastrically at a dose of 5.0 mg/kg and an administration volume of 10 mL/kg.
Compounds of Example 6, Example 9, Example 11, Example 13, Example 15, Example 16, Example 17, Example 44, and Example 45 were administered intragastrically to rats. Blood samples (0.1 mL) were taken from the orbital sinus before administration, and at 0.5 h, 1.0 h, 2.0 h, 3.0 h, 4.0 h, 6.0 h, 8.0 h, 11.0 h, and 24.0 h after administration, stored in heparinized tubes, and centrifuged for 5 minutes at 3,500 rpm to separate blood plasma. The plasma samples were stored at −20° C. The rats were fed 2 hours after administration.
The concentration of the different test compounds in rat plasma after intragastrically administering the test compounds was determined by LC-MS/MS method. The linearity of the method is 1.00-2000 ng/ml. Plasma samples were analyzed after protein precipitation was accomplished by the addition of methanol.

A word on the IC50: it is the concentration that inhibits the measured activity by half. The AUC is the area under the concentration-time curve, a measure of exposure. Broadly, the half-life is the time in which the quantity being followed falls by half. In general, MRT refers to the average time that molecules of a dose stay in the body. A word on the Cmax: it is the maximum level reached in the sampled fluid or tissue. In the case of `CC1(C)C(=O)N(c2ccc(C#N)c(C(F)(F)F)c2)C(=S)N1c1ccc(OC[C@@H](O)CO)cc1` [Example 44, (S)-4-(3-(4-(2,3-Dihydroxypropoxy)phenyl)-4,4-dimethyl-5-oxo-2-thioxoimidazolidin-1-yl)-2-(trifluoromethyl)benzonitrile], the IC50 in data set [1] was 22 nM; in data set [2], 33 nM. In addition, the activity at 3 µM in data set [3] (3 μM) worked out at 77.2%. This compound displayed an activity at 10 µM in data set [3] (10 μM) of 92.7%. Also, in data set [4] (read-out: Apparent Distribution Volume Vz/F), the Vd/F came to 2.45 ± 0.376 L/kg. In addition, the AUC in data set [4] (read-out: Area Under Curve AUC) stood at 19300 ± 4170 ng·h/mL. For the same compound, the CL/F in data set [4] (read-out: Clearance CLz/F) came out at 4.47 ± 1.08 mL/min/kg. Also, the half-life in data set [4] (read-out: Half-Life T½ (converted)) is 6.41 ± 0.6 h. Besides, the MRT in data set [4] (read-out: Mean Residence Time MRT) turned out to be 10.5 ± 1.3 h. Moreover, the Cmax in data set [4] (read-out: Plasma Conc. Cmax) amounted to 1300 ± 275 ng/mL.
